Test results reported in patent US5334761A, “Cationic lipids” (Life Technologies, Inc., priority 1992, dated 1994).
Structures can show the parent of a compound that is named as a salt.

Experiments:
BHK-21 cells = assay: % protein (toxicity estimate, Bradford) after transfection; assay type: cell-based, baby hamster
Description: (§1) A one-to-one mixture (by weight) of the desired lipid and dioleylphosphatidyl ethanolamine was prepared in CHCl3. The CHCl3 was removed on the rotary evaporator to obtain a thin film of lipid mixture. The mixture was hydrated with enough water to obtain approximately 1.25 mg of lipid per ml of solution. The solution was passed through a microfluidizer twice and diluted to 1 mg/ml. The liposome formulation was then filtered through a 0.2 μ filter. Compound 8 was also formulated without DOPE either by sonication at 1 mg/ml in water or by dissolving a dried lipid film with ethanol and then adding water to give a final concentration of 2.5 mg/ml. Ethanol was 10% of that volume. In some instances, this was further diluted with water to 1 mg/ml, 4% ethanol.
(§2) Baby hamster kidney (BHK-21) , COS-7, HeLa-S3 cells, and normal human fibroblasts isolated from newborn foreskin dermis were grown in Dulbecco's-modified Eagle's medium (DMEM) containing 10% fetal bovine serum (FBS), 2 mM L-glutamine (gln), 0.1 mM MEM nonessential amino acids (NEAA), 100 U/ml penicillin, and 100 μg/ml streptomycin. […]
(§3) The "% protein" column indicates the relative amount of protein in the sample tested for CAT activity and therefore provides a way to estimate toxicity of the compounds being tested. […] Protein was measured using a commercially available Bradford protein assay (BioRad Laboratories, Richmond, Ca.). […]

NIH-3T3 cells = assay: as above; assay type: cell-based, mouse
Description: as §1, §2, §3

normal human fibroblasts = assay: CAT transient transfection; assay type: cell-based
Description: as §1
(§4) Baby hamster kidney (BHK-21) , COS-7, HeLa-S3 cells, and normal human fibroblasts isolated from newborn foreskin dermis were grown in Dulbecco's-modified Eagle's medium (DMEM) containing 10% fetal bovine serum (FBS), 2 mM L-glutamine (gln), 0.1 mM MEM nonessential amino acids (NEAA), 100 U/ml penicillin, and 100 μg/ml streptomycin. NIH-3T3 cells were grown in DMEM containing 10% calf serum (CS), 2 mMgln, 0.1 mM NEAA 100 U/ml penicillin, and 100 μg/ml streptomycin. PC12 cells were grown in DMEMcontaining 10% horse serum, 5% FBS, 2 mM gln, 0 1 mMNEAA, 100 U/ml penicillin and 100 μ/ml streptomycin. Jurkat cells (human lymphoid cell line) were grown in RPMI-1640 supplemented with 10% FBS, 2mML-glutamine, 100 U/ml penicillin, and 100 μg/ml streptomycin. Human keratinocytes were isolated from newborn foreskin epidermis and cultured in Keratinocyte Growth Medium (Clonetics, San Diego, Ca.). All cell lines were maintained in a humidified incubator with a 5% CO2 atmosphere at 37° C.
(§5) pSV2CAT (5.0 Kb) was described previously (Gorman, C. M. et al. (1982) Mol. Cell. Biol. 2:1044). pCMVCAT (5.0 Kb) was also described previously (Foecking M. K. and Hofstetter, H. (1986) Gene 45:101). Plasmid DNA was purified by isopycnic centrifugation in CsCl/EtBr gradients after recovery by alkaline lysis (Maniatis, T. et al. (1982) in Molecular Cloning: A Laboratory Manual, Cold Spring Harbor Laboratory, Cold Spring Harbor, N.Y., pp. 90-91).
For transient transfection of pSV2CAT DNA or pCMVCAT DNA, cells were plated in 6-well tissue culture dishes (35 mm wells) and incubated overnight to approximately 60% confluency. To transfect cells in one well, 1-2 μg of pSV2CAT DNA or pCMVCAT DNA was diluted in 100 μl Opti-MEM I. Cationic lipids were diluted separately in another 100 μl aliquot of Opti-MEM I. The two solutions were then mixed in a polystyrene tube, incubated for 10-15 min at room temperature to allow the formation of a DNA-liposome complex, and diluted to one ml by adding 0.8 ml Opti-MEM I or DMEM containing 5% fetal bovine serum (FBS), 2 mMgln, 0.1 mMNEAA, and lacking antibiotics. The cells were washed once with Opti-MEM I or serum-free DMEM, and the DNA-liposome complex was added directly to the cells. After a six hr incubation at 37° C., the transfection complexes were removed and two ml of DMEM containing 10% FBS, 2 mMgln, 0.2 mMNEAA, 100 U/ml penicillin, and 100 μg/ml streptomycin, was added to each well. Note: human keratinocytes were cultured and transfected in Keratinocyte Growth Medium. Cells were incubated for an additional 48 hrs and lysed in situ by freeze-thawing once or twice in 300 μl 0.1M Tris-HC1, pH 7.8-8.0 containing 0 1% Triton X-100. Cell lysates were assayed for CAT activity.
(§6) Cell lysates were assayed for CAT activity as described by Neumann et al. (1987) BioTechniques 5:444 using [^14 C]-butyryl coenzyme A (New England Nuclear, Boston, Mass.). The enzyme reactions were incubated for 2 hrs at 37° C., overlayed with 3.0 ml Econofluor (New England Nuclear) and then incubated for an additional 2 hrs to allow diffusion of the acetylated chloramphenicol into the scintillation fluid. CAT activity was determined by measuring radioactivity in a liquid scintillation counter. […]

[1] = system: normal human keratinocytes; assay: % protein (toxicity estimate, Bradford) after transfection; assay type: cell-based
Description: as §1
as §4, with “C. […]” for “C.”
as §3

PC12 cells = assay: CAT transient transfection; assay type: cell-based, rat
Description: as §1, §2
Cell lysates were assayed for CAT activity as described by Neumann et al. (1987) BioTechniques 5:444 using [^14 C]-butyryl coenzyme A (New England Nuclear, Boston, Mass.). […] CAT activity was determined by measuring radioactivity in a liquid scintillation counter. […]

Jurkat cells = assay: CAT transient transfection; assay type: cell-based, human
Description: as §1, §4, §5
For transient nuclear expression of pSV2CAT or pCMVCAT in Jurkat cells, cells were washed with Opti-MEM I or serum-free RPMI 1640 containing 2 mM gln and plated in six-well plates at a density of 3×10^6 cells per well in 0.8 ml Opti-MEM I or RPMI 1640. For each transfection, 5 μg pSV2CAT DNA or 2 μg pCMVCAT DNA was diluted in 100 μl Opti-MEM I. Lipids were diluted separately in another 100 μl aliquot of Opti-MEMI. The two solutions were then mixed in a polystyrene tube and incubated for 10-15 min at room temperature. The DNA-liposome complex was added to the cell suspensions and incubated 6 hours at 37° C., after which 4 ml growth medium were added per well (RPMI-1640; 10% FBS). Phorbol myristate acetate (Sigma Chemical Co., St. Louis, Mo.) and phytohemagglutinin (Sigma) were also added to a final concentration of 50 ng/ml and 1 μg/ml, respectively, to activate the cells. Cells were harvested at approximately 48 hours post-transfection by centrifugation. Cell lysates were prepared by resuspending cell pellets at 0° C. in 0.1 M Tris-HC1 pH 8.0 containing 0.1% Triton X-100 and freeze-thawing once. Cell lysates were cleared by centrifugation and assayed for CAT activity.
as §6

## CCCCCCCC/C=C\CCCCCCCCOCC(C[N+](C)(C)CCNC(=O)C(CCCNCCCN)NCCCN)OCCCCCCCC/C=C\CCCCCCCC (centres unmarked) [Compound 8, 1-Propanaminium, N-[2-[[2,5-bis[(3-amino]-1-oxopentyl]amino]ethyl]-n,n-dimethyl-2,3,-bis(9-octadecenyloxy)-, tetra(trifluoroacetate) salt]
BHK-21 cells
  toxicity (in words): minimal toxicity
NIH-3T3 cells
  toxicity (in words): minimal toxicity
Normal human fibroblasts
  DNA transfection (in words): successfully transfected
[1]
  toxicity (in words): minimal toxicity
PC12 cells; 40 μg lipid, 2 μg pCMVCAT, 6 h DMEM
  CAT ACTIVITY: 28,512 CPM/150 ul
PC12 cells; PC12
  DNA transfection (in words): highly effective
Jurkat cells; 15 μg lipid, 2 μg pCMVCAT, 6 h RPMI1640
  CAT ACTIVITY: 44,996 CPM/150 ul
Jurkat cells; Jurkat
  DNA transfection (in words): highly effective
